Converted amounts (≈) assume the structure as drawn.
Tests used:
Rattus norvegicus = conditions: acute; oral; mortality
Oncorhynchus mykiss = conditions: for LC50: acute, duration: 96 hours, mortality
Pleurozium sp. = conditions: acute; duration: 72 hours; growth
Tagia sp. = conditions: chronic/long-term; reproduction
Salmo salar = conditions: acute; duration: 96 hours; mortality
Oryctolagus sp. = conditions: developmental; development
Daphnia magna = conditions: chronic/long-term; duration: 28 days; reproduction
Colinus virginianus = conditions: acute; oral; mortality
Folsomia candida = conditions: chronic/long-term; reproduction
Anas platyrhynchos = conditions: reproductive
Apis mellifera = conditions: acute, duration: 48 hours, mortality
Mus musculus = conditions: acute; oral; mortality
Aphidius rhopalosiphi = test: LR50; higher = less toxic; conditions: not reported; mortality

O=C1NC(=O)C2CC=CCC12 (configuration not stated) [1,2,3,6-Tetrahydrophthalimide]
LD50 (Rattus norvegicus): ≥ 1470 mg/kg-day | LC50 (Oncorhynchus mykiss): > 120 µg/mL

NC(=O)C1CC=CCC1C(=O)O (configuration not stated) [6-[Hydroxy(imino)methyl]cyclohex-3-ene-1-carboxylic acid]
NOEC (Pleurozium sp.): 32 mg/L | LC50 (Oncorhynchus mykiss): > 120 µg/mL

O=C1C2CC=CCC2C(=O)N1SC(Cl)(Cl)Cl (configuration not stated) [Captan]
NOEC (Tagia sp.): 7.3 mg/kg | LC50 (Salmo salar): 0.0913 µg/mL (≈ 0.304 µM) | NOAEL (Oryctolagus sp.): 20 mg/kg-day | NOEC (Daphnia magna): 0.4 mg/L | LD50 (Colinus virginianus): > 2000 mg/kg-day | NOEC (Folsomia candida): 100 mg/kg | NOEL (Anas platyrhynchos): 74.4 mg/kg-day | LC50 (Oncorhynchus mykiss): 0.0147 µg/mL (≈ 0.0489 µM) | NOEC (Oncorhynchus mykiss; chronic/long-term, duration: 95 days, growth): 0.2 mg/L | LD50 (Apis mellifera; dermal): > 200 µg/piece | LD50 (Apis mellifera; oral, unspecified): > 100 µg/piece | LD50 (Mus musculus): 3720 mg/kg-day | LR50 (Aphidius rhopalosiphi): > 3200 g/ha
